Molecular target: Apolipoprotein L1 (Homo sapiens, UniProt O14791)
Assay: Inhibition of APOL1 G1 variant in human HEK293-T-REx cells measured by Thallium assay
Assay type: cell-based

| Structure (SMILES) | IC50 |
| --- | --- |
| O=C(NCC1(O)COC1)NC[C@H]1C[C@H](c2c(-c3ccc(F)cc3)[nH]c3c(F)cc(F)cc32)C1 | > 1000 nM |
| O=C(NC[C@H]1CC[C@@H](CO)O1)NC[C@H]1C[C@H](c2c(-c3ccc(F)cc3)[nH]c3c(F)cc(F)cc32)C1 | > 1000 nM |
| C[C@H](NCC1CC(c2c(-c3ccc(F)cc3)[nH]c3c(F)cc(F)cc23)C1)C(N)=O (stereo not given in full) | > 1000 nM |
| O=C(NC[C@H]1C[C@H](c2c(-c3ccc(F)cc3)[nH]c3c(F)cc(F)cc32)C1)NC(CO)C(F)(F)F (stereo not given in full) | > 1000 nM |
| CCC(O)CNC(=O)O[C@H]1C[C@H](c2c(-c3ccc(F)cc3)[nH]c3c(F)cc(F)cc32)C1 (stereo not given in full) | > 1000 nM |
| CC(C)(NCC1CC(c2c(-c3ccc(F)cc3)[nH]c3c(F)cc(F)cc23)C1)C(N)=O (stereo not given) | > 1000 nM |
| NC(=O)C(CO)NCC1CC(c2c(-c3ccc(F)cc3)[nH]c3c(F)cc(F)cc23)C1 (stereo not given) | 0.25 nM |
| C[C@@H](O)CNC(=O)N(C)CC1CC(c2c(-c3ccc(F)cc3)[nH]c3c(F)cc(F)cc23)C1 (stereo not given in full) | > 1000 nM |
| Cn1cc(CNC(=O)O[C@H]2C[C@H](c3c(-c4ccc(F)cc4)[nH]c4c(F)cc(F)cc43)C2)nn1 | > 1000 nM |
| CN(CC1CC(c2c(-c3ccc(F)cc3)[nH]c3c(F)cc(F)cc23)C1)C(=O)NCc1cn(C)cn1 (stereo not given) | > 1000 nM |
| CNC(=O)CNC[C@H]1C[C@H](c2c(-c3ccc(F)cc3)[nH]c3c(F)cc(F)cc32)C1 | < 250 nM |
| C[C@H](CO)N(C)C(=O)NC[C@H]1C[C@H](c2c(-c3ccc(F)cc3)[nH]c3c(F)cc(F)cc32)C1 | > 1000 nM |
| CC(CO)N(C)C(=O)NC[C@H]1C[C@H](c2c(-c3ccc(F)cc3)[nH]c3c(F)cc(F)cc32)C1 (stereo not given in full) | > 1000 nM |
| CN(C)C(=O)CNCC1CC(c2c(-c3ccc(F)cc3)[nH]c3c(F)cc(F)cc23)C1 (stereo not given) | 0.25 nM |
| CN(C(=O)NC[C@H]1C[C@H](c2c(-c3ccc(F)cc3)[nH]c3c(F)cc(F)cc32)C1)C1COCC1O (stereo not given in full) | > 1000 nM |
| CNC(=O)C(C)NCC1CC(c2c(-c3ccc(F)cc3)[nH]c3c(F)cc(F)cc23)C1 (stereo not given) | 0.25 nM |
| CC1(O)CC(NC(=O)NC[C@H]2C[C@H](c3c(-c4ccc(F)cc4)[nH]c4c(F)cc(F)cc43)C2)C1 (stereo not given in full) | > 1000 nM |
| O=C(CNC[C@H]1C[C@H](c2c(-c3ccc(F)cc3)[nH]c3c(F)cc(F)cc32)C1)NCO | < 250 nM |
| O=C(NCC1(O)CC1)NC[C@H]1C[C@H](c2c(-c3ccc(F)cc3)[nH]c3c(F)cc(F)cc32)C1 | > 1000 nM |
| CC1CC(NC(=O)NC[C@H]2C[C@H](c3c(-c4ccc(F)cc4)[nH]c4c(F)cc(F)cc43)C2)C(=O)O1 (stereo not given in full) | > 1000 nM |
| CC(C)CC(NCC1CC(c2c(-c3ccc(F)cc3)[nH]c3c(F)cc(F)cc23)C1)C(N)=O (stereo not given) | > 1000 nM |
| O=C(NCc1ccco1)O[C@H]1C[C@H](c2c(-c3ccc(F)cc3)[nH]c3c(F)cc(F)cc32)C1 | > 1000 nM |
| C[C@@H](NCC1CC(c2c(-c3ccc(F)cc3)[nH]c3c(F)cc(F)cc23)C1)C(=O)N(C)C (stereo not given in full) | > 1000 nM |
| O=C(NC[C@H]1C[C@H](c2c(-c3ccc(F)cc3)[nH]c3c(F)cc(F)cc32)C1)NC1CC(O)C1 (stereo not given in full) | > 1000 nM |
| O=C(NC[C@H]1C[C@H](c2c(-c3ccc(F)cc3)[nH]c3c(F)cc(F)cc32)C1)NC1(CO)CCOC1 (stereo not given in full) | > 1000 nM |
| CN(CC1CC(c2c(-c3ccc(F)cc3)[nH]c3c(F)cc(F)cc23)C1)C(=O)N1CCC1 (stereo not given) | > 1000 nM |
| CC1(C)CC(NC(=O)NC[C@H]2C[C@H](c3c(-c4ccc(F)cc4)[nH]c4c(F)cc(F)cc43)C2)C(=O)O1 (stereo not given in full) | > 1000 nM |

| Structure (SMILES) | IC50 |
| --- | --- |
| CNC(=O)NC[C@H]1C[C@H](c2c(-c3ccc(F)cc3)[nH]c3c(F)cc(F)cc32)C1 | 0.25 nM |
| O=C(NC[C@H]1C[C@H](c2c(-c3ccc(F)cc3)[nH]c3c(F)cc(F)cc32)C1)NC1(CO)CC(F)(F)C1 | > 1000 nM |
| O=C(CC1CC(c2c(-c3ccc(F)cc3)[nH]c3c(F)cc(F)cc23)C1)N[C@@H]1CCNC1=O (stereo not given in full) | > 1000 nM |
| O=C(NC1CC(O)C1)O[C@H]1C[C@H](c2c(-c3ccc(F)cc3)[nH]c3c(F)cc(F)cc32)C1 (stereo not given in full) | > 1000 nM |
| C[C@@H](CO)NC(=O)CC1CC(c2c(-c3ccc(F)cc3)[nH]c3c(F)cc(F)cc23)C1 (stereo not given in full) | > 1000 nM |
| O=C(NC[C@H]1C[C@H](c2c(-c3ccc(F)cc3)[nH]c3c(F)cc(F)cc32)C1)N[C@H]1CC[C@H](O)C1 | > 1000 nM |
| C[C@@H](CO)NC(=O)NC[C@H]1C[C@H](c2c(-c3ccc(F)cc3)[nH]c3c(F)cc(F)cc32)C1 | > 1000 nM |
| O=C(N[C@H]1COC[C@@H]1O)O[C@H]1C[C@H](c2c(-c3ccc(F)cc3)[nH]c3c(F)cc(F)cc32)C1 | > 1000 nM |
| C[C@]1(NC(=O)NC[C@H]2C[C@H](c3c(-c4ccc(F)cc4)[nH]c4c(F)cc(F)cc43)C2)C[C@@H](O)C1 | > 1000 nM |
| CC1(C)CC(C)(NC(=O)NC[C@H]2C[C@H](c3c(-c4ccc(F)cc4)[nH]c4c(F)cc(F)cc43)C2)C(=O)O1 (stereo not given in full) | > 1000 nM |
| Cc1ccc(CNC(=O)O[C@H]2C[C@H](c3c(-c4ccc(F)cc4)[nH]c4c(F)cc(F)cc43)C2)o1 | > 1000 nM |
| CN1CCN(C(=O)CNCC2CC(c3c(-c4ccc(F)cc4)[nH]c4c(F)cc(F)cc34)C2)CC1 (stereo not given) | > 1000 nM |
| C[C@H](CO)NC(=O)NC[C@H]1C[C@H](c2c(-c3ccc(F)cc3)[nH]c3c(F)cc(F)cc32)C1 | > 1000 nM |
| C[C@H](NCC1CC(c2c(-c3ccc(F)cc3)[nH]c3c(F)cc(F)cc23)C1)C(=O)N(C)C (stereo not given in full) | 0.25 nM |
| O=C(CC1CC(c2c(-c3ccc(F)cc3)[nH]c3c(F)cc(F)cc23)C1)N[C@H]1CCNC1=O (stereo not given in full) | > 1000 nM |
| O=C(NCC1(CO)COC1)NC[C@H]1C[C@H](c2c(-c3ccc(F)cc3)[nH]c3c(F)cc(F)cc32)C1 | > 1000 nM |
| CC1(NC(=O)NC[C@H]2C[C@H](c3c(-c4ccc(F)cc4)[nH]c4c(F)cc(F)cc43)C2)CCNC1=O (stereo not given in full) | > 1000 nM |
| O=C(NCC1CCNC1=O)NC[C@H]1C[C@H](c2c(-c3ccc(F)cc3)[nH]c3c(F)cc(F)cc32)C1 (stereo not given in full) | > 1000 nM |
| CC(C)(O)CNC(=O)NC[C@H]1C[C@H](c2c(-c3ccc(F)cc3)[nH]c3c(F)cc(F)cc32)C1 | > 1000 nM |
| CO[C@H]1C[C@@H](NC(=O)O[C@H]2C[C@H](c3c(-c4ccc(F)cc4)[nH]c4c(F)cc(F)cc43)C2)C1 | > 1000 nM |
| CNC(=O)N(C)CC1CC(c2c(-c3ccc(F)cc3)[nH]c3c(F)cc(F)cc23)C1 (stereo not given) | > 1000 nM |
| C[C@H](O)CNC(=O)N(C)CC1CC(c2c(-c3ccc(F)cc3)[nH]c3c(F)cc(F)cc23)C1 (stereo not given in full) | > 1000 nM |
| O=C(NC[C@H]1C[C@H](c2c(-c3ccc(F)cc3)[nH]c3c(F)cc(F)cc32)C1)N[C@H]1C[C@H](O)C1 | > 1000 nM |
| O=C(NCCO)NC[C@H]1C[C@H](c2c(-c3ccc(F)cc3)[nH]c3c(F)cc(F)cc32)C1 | > 1000 nM |
| CON(C)C(=O)CNC[C@H]1C[C@H](c2c(-c3ccc(F)cc3)[nH]c3c(F)cc(F)cc32)C1 | 0.25 nM |
| C[C@H](CO)NC(=O)CC1CC(c2c(-c3ccc(F)cc3)[nH]c3c(F)cc(F)cc23)C1 (stereo not given in full) | > 1000 nM |
| O=C(N[C@H]1CCOC1)O[C@H]1C[C@H](c2c(-c3ccc(F)cc3)[nH]c3c(F)cc(F)cc32)C1 | > 1000 nM |

| Structure (SMILES) | IC50 |
| --- | --- |
| O=C(NC[C@H]1C[C@H](c2c(-c3ccc(F)cc3)[nH]c3c(F)cc(F)cc32)C1)N[C@H]1CC[C@@H]1O | > 1000 nM |
| O=C(NC[C@H]1C[C@H](c2c(-c3ccc(F)cc3)[nH]c3c(F)cc(F)cc32)C1)N1CCC[C@@H]1CO | > 1000 nM |
| COC1CC1NC(=O)O[C@H]1C[C@H](c2c(-c3ccc(F)cc3)[nH]c3c(F)cc(F)cc32)C1 (stereo not given in full) | > 1000 nM |
| CC(C)(C)[C@H](CO)NC(=O)NC[C@H]1C[C@H](c2c(-c3ccc(F)cc3)[nH]c3c(F)cc(F)cc32)C1 | > 1000 nM |
| CC(C)[C@@H](CO)NC(=O)O[C@H]1C[C@H](c2c(-c3ccc(F)cc3)[nH]c3c(F)cc(F)cc32)C1 | > 1000 nM |
| CC[C@H](CO)NC(=O)NC[C@H]1C[C@H](c2c(-c3ccc(F)cc3)[nH]c3c(F)cc(F)cc32)C1 | > 1000 nM |
| O=C(NCC1CCOC1)O[C@H]1C[C@H](c2c(-c3ccc(F)cc3)[nH]c3c(F)cc(F)cc32)C1 (stereo not given in full) | > 1000 nM |
| CC(C)NC(=O)CNC[C@H]1C[C@H](c2c(-c3ccc(F)cc3)[nH]c3c(F)cc(F)cc32)C1 | > 1000 nM |
| CC[C@H](NCC1CC(c2c(-c3ccc(F)cc3)[nH]c3c(F)cc(F)cc23)C1)C(=O)NCC(F)(F)F (stereo not given in full) | > 1000 nM |
| CC(C)C(CO)NC(=O)O[C@H]1C[C@H](c2c(-c3ccc(F)cc3)[nH]c3c(F)cc(F)cc32)C1 (stereo not given in full) | > 1000 nM |
| O=C(NC1CCOC1)O[C@H]1C[C@H](c2c(-c3ccc(F)cc3)[nH]c3c(F)cc(F)cc32)C1 (stereo not given in full) | > 1000 nM |
| Cc1cnc(CNC(=O)O[C@H]2C[C@H](c3c(-c4ccc(F)cc4)[nH]c4c(F)cc(F)cc43)C2)o1 | > 1000 nM |
| CC[C@@H](CO)NC(=O)NC[C@H]1C[C@H](c2c(-c3ccc(F)cc3)[nH]c3c(F)cc(F)cc32)C1 | > 1000 nM |
| O=C(NC[C@H](O)C(F)(F)F)NC[C@H]1C[C@H](c2c(-c3ccc(F)cc3)[nH]c3c(F)cc(F)cc32)C1 | > 1000 nM |
| CC(CO)(CO)NC(=O)NC[C@H]1C[C@H](c2c(-c3ccc(F)cc3)[nH]c3c(F)cc(F)cc32)C1 | > 1000 nM |
| O=C(CC1CC(c2c(-c3ccc(F)cc3)[nH]c3c(F)cc(F)cc23)C1)NC1(CO)CCC1 (stereo not given) | > 1000 nM |
| O=C(NC[C@H]1C[C@H](c2c(-c3ccc(F)cc3)[nH]c3c(F)cc(F)cc32)C1)N[C@H]1CC[C@H]1O | > 1000 nM |
| NC(=O)C(CC(F)(F)F)NCC1CC(c2c(-c3ccc(F)cc3)[nH]c3c(F)cc(F)cc23)C1 (stereo not given) | > 1000 nM |
| O=C(NCc1cn(CC(F)(F)F)cn1)O[C@H]1C[C@H](c2c(-c3ccc(F)cc3)[nH]c3c(F)cc(F)cc32)C1 | > 1000 nM |
| O=C(CNC[C@H]1C[C@H](c2c(-c3ccc(F)cc3)[nH]c3c(F)cc(F)cc32)C1)NC1CC1 | 0.25 nM |
| CC(O)(CO)CNC(=O)O[C@H]1C[C@H](c2c(-c3ccc(F)cc3)[nH]c3c(F)cc(F)cc32)C1 (stereo not given in full) | > 1000 nM |
| CCNC(=O)NC[C@H]1C[C@H](c2c(-c3ccc(F)cc3)[nH]c3c(F)cc(F)cc32)C1 | > 1000 nM |
| C[C@@H](O)CNC(=O)NC[C@H]1C[C@H](c2c(-c3ccc(F)cc3)[nH]c3c(F)cc(F)cc32)C1 | > 1000 nM |
| O=C(CC1CC(c2c(-c3ccc(F)cc3)[nH]c3c(F)cc(F)cc23)C1)NC1(CO)CC1 (stereo not given) | 0.25 nM |
| Cc1cc(CNC(=O)O[C@H]2C[C@H](c3c(-c4ccc(F)cc4)[nH]c4c(F)cc(F)cc43)C2)on1 | > 1000 nM |
| CN(CC1CC(c2c(-c3ccc(F)cc3)[nH]c3c(F)cc(F)cc23)C1)C(=O)NCCO (stereo not given) | > 1000 nM |
